The source of these data is patent publication US20260256716A1, “COMPOSITIONS AND METHODS OF USE THEREOF” (Board of Supervisors of Louisiana State University and …, priority 2023, published 2026).

One test concerns mitofusin2 and TOMM20. Put plainly: Western blot of mitofusin2 and TOMM20 in ARPE-19 cells. The conditions noted are these: all concentrations; 48 h post treatment; DMEM 7% FCS. Type of test: cell-based, human. The source says: Representative 5-HT2A Receptor Agonist, R-DOI, Increases Mitochondrial Biogenesis and Quality by Inducing Mitochondrial Fusion at low nM concentrations thereby reversing adverse processes that underlie development and progression of the Pathophysiology of Age-Associated Ocular and Neurodegenerative Diseases. Consistent with the Maintenance of Functional Mitochondria and Mitochondrial Health, Serotonin 2A Receptor Agonism, Like with R-DOI, Increases Enzymatic BioMarkers of Mitochondrial Fusion (Mitofusin2) and Biogenesis (TOMM20). ARPE-19 cells were grown in DMEM 7% FCS containing the indicated concentrations of R-DOI. 48 h post treatment, cell samples were lysed and normalized prior to running western blots to evaluate mitofusin2 and TOMM20 protein expression. […] Mitofusion2 functions to regulate mitochondrial fusion. TOMM20 imports proteins through the outer membrane and is a marker of biogenesis and number.
For orientation: Immunoblotting shows a protein as a band on a membrane.

The test system of another test is ARPE-19 cells. Briefly: ATP luciferase assay in ARPE-19 cells. Type of test: cell-based, human.
The next test deals with SIRT1 and 3. Briefly: Western analysis of Sirtuin (SIRT) 1 and 3 expression. The class given is cell-based. The following applies: varying concentrations, increased as concentrations decreased to nM. The source says: Sirtuins utilize NAD to suppress pathophysiological processes of aging, including diabetic retinopathies, AMD and Neurodegeneration. Representative western analysis of Sirtuin (SIRT) 1 and 3 expression following cellular treatment with the representative 5-HT2A Receptor agonist R-DOI at varying concentrations.

Test [1] deals with ARPE cells. Briefly: Mitochondrial morphology by fluorescent microscopy in ARPE cells expressing mitochondrial red/green fluorescent protein. Type of test: cell-based, human. The following applies: 100 nM, 50 nM or 10 nM; 48 hours post treatment. Here is the method: Representative 5-HT2A Receptor Agonist, R-DOI, Increases Mitochondrial Biogenesis and Quality by Inducing Mitochondrial Fusion at low nM concentrations thereby reversing adverse processes that underlie development and progression of the Pathophysiology of Age-Associated Ocular and Neurodegenerative Diseases. ARPE cells transfected with plasmids that express either a red or green fluorescent protein biomarker that marks mitochondria were plated and treated with R-DOI @100 nM, 50 nM or 10 nM. 48 hours post treatment, mitochondrial morphology was evaluated by fluorescent microscopy.
• Fluorescent dyes limit researchers to study in a static manor due to fixation. We engineered a plasmid expressing mitochondrial localized AcGFP1/dsRed2. […]

Test [2] concerns ARPE cells. Briefly: Blue light induced mitochondrial fragmentation in ARPE cells (mitotracker green). The following applies: 100 nM; 48 hours; hyperglycemic conditions; blue light 400 nm. Type of test: cell-based, human. Here is the method: ARPE cells grown under hyperglycemic conditions were plated and mock treated or treated with R-DOI or 2C-iBu at 100 nM. 48 hours post treatment, mitochondria in live cells were visualized by staining mitochondria with mitotracker green (green). Once stained, live ARPE cells were exposed to focused blue light at 400 nm and the ability of drugs to protect against blue light damage-induced mitochondrial fragmentation was assessed.

A further test has as its system intracellular H2O2. Briefly: Intracellular H2O2 (ROS-Glo bioluminescence) in ARPE-19 cells at diabetic glucose concentrations. The class given is cell-based, human. The conditions noted are these: 10 nM; glucose 5, 10, 20, 30 mM; 72 hours. Here is the method:
Hyperglycemic conditions induce increased disease promoting ROS production that is abrogated by low nM concentrations of the Representative 5-HT2A Receptor Agonist. R-DOI Returning to Base-line Homeostatic Levels. ARPE-19 cells were plated using physiological media (HPLM; 7% FCS) overnight prior to starvation (HPLM 0.5% FCS) overnight with or without 10 nM R-DOI. Cells were then replaced with HPLM 7% FCS containing a range of glucose concentrations spanning diabetic blood glucose levels (5 mM, 10 mM, 20 mM, and 30 mM) with or without the addition of 10 nM R-DOI for 72-hours. Cells were then lysed to quantify intracellular H2O2 levels via bioluminescence as described above. Low dose 5-HT2A agonists abrogate the hyperglycemic induced induction od ROS that is pathophysiological for development and progression of neurodegenerative and ocular age-related diseases, especially within diabetic patients, or patients that have conditions that induce increased levels of blood glucose. Pathological glucose concentrations increase intracellular H2O2. 5-HT2AR agonism alleviates glucose-induced intracellular H2O2 at diabetic glucose concentrations.
Evaluating intracellular reactive oxygen species (ROS) levels (FIG. 67). Promega's ROS-Glo H2O2 assay enables researchers to evaluate intracellular ROS levels. […]

Test [3] concerns ARPE cells. Briefly: Blue light induced mitochondrial oxidative stress in ARPE cells (Mitosox). Type of test: cell-based, human. The conditions noted are these: 0.001 nM; 24 hours; hyperglycemic conditions; blue light 400 nm 12 seconds. Here is the method: Representative 5-HT2A Receptor Agonist, R-DOI Inhibits Blue Light Induced Mitochondrial-Mediated Oxidative Stress at low sub-nanomolar concentrations thereby reversing adverse processes that are associated with retinal exposure to blue light. ARPE cells grown under hyperglycemic conditions were plated and mock treated or treated with R-DOI at 0.001 nM. 24 hours post treatment, live ARPE cells were labeled with the mitochondrial oxidative stress indicator dye Mitosox that becomes fluorescent red under mitochondria-induced oxidative stress conditions. Once stained, live ARPE cells were exposed to focused blue light at 400 nm for 12 seconds and the ability of drugs to protect against blue light damage-induced mitochondrial oxidative stress induction was assessed. In the absence of 5HT2A agonists, there was a clear increase in red fluorescence upon blue light exposure.

As for `COc1cc(C[C@@H](C)N)c(OC)cc1I` (single isomer, unassigned) [R-DOI, R enantiomer 2,5-Dimethoxy-4-iodoamphetamine], in the test with mitofusin2 and TOMM20, the “Mitofusin 2 protein expression” value is reported as “increased expression of Mitofusin 2” and the “TOMM20 protein expression (mitochondrial biomass)” value is “increased mitochondrial biomass (TOMM20)”. The “ATP levels relative to Mock treated ARPE-19 cells” value in the test with ARPE-19 cells (10 fold dilutions 100 nM to 0.1 nM) is “Increase Mitochondrial Function And ATP Production”. In the test with ARPE-19 cells (ARPE WT cells, 24 h after administration), the “production of ATP” value was “enhanced production of ATP”. Moreover, the “SIRT1 and 3 expression” value in the test on SIRT1 and 3 is on record as “induced”. In addition, the “SIRT1 and 3 expression” value in the test with SIRT1 and 3 (listed as (R)-DOI) is on record as “upregulates SIRT1”. Besides, in the test with ARPE cells [1], the “mitochondrial biomass and morphology” value is reported as “increased mitochondrial biomass with a non-fragmented fused morphology”. Also, in the test with ARPE cells [2], the “blue light induced mitochondrial fragmentation/damage” value is “Inhibit Blue Light and Oxidative Stress Induced Mitochondrial Fragmentation/Damage”. Moreover, the “hyperglycemia induced ROS production (intracellular H2O2)” value in the test on intracellular H2O2 is “abrogated”. Moreover, the “blue light induced mitochondrial oxidative stress” value in the test on ARPE cells [3] is given as “abrogated mitochondrial oxidative stress responses”.
